Patent US20230398153A1, “A METHOD FOR EFFICIENT MICROGLIA REPLACEMENT” (The Board of Trustees of the Leland Stanford Junior …, priority 2020, published 2023)

Test system: PB leukocytes and brain myeloid cells
Experiment: Conventional HSCT after busulfan conditioning: GFP chimerism in peripheral blood and brain
Format: in vivo, mouse
Details: busulfan 5 days, IV GFP bone marrow
Procedure: FIG. 1. Microglia replacement after bone marrow transplantation is a slow, inefficient and variable process. (A) Schematic overview of bone marrow transplantation (HSCT). Recipient mice were received intraperitoneal (IP) injection of busulfan for 5 days at 25 mg/kg/day (i.e. 125 mg/kg total dose) and then transplanted with GFP-expressing bone marrow cells via intravenous (IV) injection. Donor chimerism in peripheral blood (PB) and brain myeloid cells was analyzed at the indicated time points. (B and C) Donor chimerism in PB leukocytes (CD45+ cells) and brain myeloid cells (CD45+CD11b+ cells) was analyzed by flow cytometry at the indicated time point. […] GFP chimerism in PB leukocytes (B) (Mean±SEM, n=5-20/time point, ***p<0.001, ns: not significant, ANOVA). […] (F) Quantification of transplanted GFP+bone marrow cells in coronal brain sections. […] Horizontal bars represent mean values (n=3/group, 3 brain slices/animal were quantified. **p<0.01, ***p<0.001, Student's t-test). […] (H) Microglia chimerism was analyzed by flow cytometry 14 days post IV injection. […]
The reported efficiencies of microglia replacement following HSCT in mice vary greatly in the literature. […] Brain chimerism was determined by sacrificing the mice, dissociating one hemisphere for flow cytometry analysis and fixing the other hemisphere for immunofluorescence analysis (FIG. 8A-C). […]

CS(=O)(=O)OCCCCOS(C)(=O)=O [busulfan]
GFP+ cells in peripheral blood (2 weeks after transplantation, average): about 40% | degree of GFP chimerism among brain myeloid cells, range between mice (conventional HSCT without PLX5622): 7.09-73.4%
